In ChEMBL document CHEMBL2401704, “Inhibition of rhodesain as a novel therapeutic modality for human African trypanosomiasis” (J Med Chem, 2013):
In brackets after ≈: the same amount, converted by molar mass. Residues, ends and D or L forms follow the SMILES beside them. *: point of attachment. Cbz = O=C(OCc1ccccc1)*

Columns and labels:
[1] = tested on: Trypanosoma brucei brucei; assay: Antitrypanosomal activity against procyclic form of Trypanosoma brucei brucei; assay type: functional; settings: read-out: ED50 (the source's name)
[2] = Oral bioavailability in Sprague-Dawley rat; assay type: ADME, organism-based; settings: in vivo
[3] = tested on: Trypanosoma brucei brucei; assay: Antitrypanosomal activity against blood stream form of Trypanosoma brucei brucei; assay type: functional, organism-based; settings: for EC50: read-out: ED50 (the source's name)
[4] = Inhibition of Trypanosoma brucei recombinant rhodesain
[5] = Selectivity index, ratio of ED50 for human HL60 cells to ED50 for Trypanosoma brucei brucei; assay type: toxicity, cell-based, HL-60; settings: read-out: Ratio ED50
[6] = Cytotoxicity against human HL60 cells; assay type: cell-based, HL-60; settings: for CC50: read-out: ED50 (the source's name); for MCC: read-out: MIC
Trypanosoma brucei = assay: Inhibition of Trypanosoma brucei rhodesain assessed as second order rate constant
[7] = Inhibition of cathepsin B (unknown origin); design: species or system Homo sapiens
Papain = target: T1, Papain (Carica papaya, UniProt P00784); assay: Inhibition of papaya papain
T1 sequence (P00784 whole entry): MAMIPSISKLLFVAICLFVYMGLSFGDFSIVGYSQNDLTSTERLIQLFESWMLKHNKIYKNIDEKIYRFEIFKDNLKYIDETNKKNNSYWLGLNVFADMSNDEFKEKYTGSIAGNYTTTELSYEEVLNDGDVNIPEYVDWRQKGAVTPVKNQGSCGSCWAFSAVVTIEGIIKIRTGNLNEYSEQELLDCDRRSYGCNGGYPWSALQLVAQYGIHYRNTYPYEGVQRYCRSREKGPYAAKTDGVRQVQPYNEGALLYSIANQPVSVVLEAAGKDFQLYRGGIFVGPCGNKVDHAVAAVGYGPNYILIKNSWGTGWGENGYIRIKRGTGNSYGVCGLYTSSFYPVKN

[8] = Inhibition of Trypanosoma brucei rhodesain
Cruzipain = Cruzipain (Trypanosoma cruzi, UniProt P25779); assay: Inhibition of Trypanosoma cruzi cruzain
Trypsin = Trypsin (Homo sapiens, UniProt P07477+P07478+P35030); assay: Inhibition of trypsin (unknown origin); assay type: protein assay

Sequence of Cruzipain (P25779 whole entry): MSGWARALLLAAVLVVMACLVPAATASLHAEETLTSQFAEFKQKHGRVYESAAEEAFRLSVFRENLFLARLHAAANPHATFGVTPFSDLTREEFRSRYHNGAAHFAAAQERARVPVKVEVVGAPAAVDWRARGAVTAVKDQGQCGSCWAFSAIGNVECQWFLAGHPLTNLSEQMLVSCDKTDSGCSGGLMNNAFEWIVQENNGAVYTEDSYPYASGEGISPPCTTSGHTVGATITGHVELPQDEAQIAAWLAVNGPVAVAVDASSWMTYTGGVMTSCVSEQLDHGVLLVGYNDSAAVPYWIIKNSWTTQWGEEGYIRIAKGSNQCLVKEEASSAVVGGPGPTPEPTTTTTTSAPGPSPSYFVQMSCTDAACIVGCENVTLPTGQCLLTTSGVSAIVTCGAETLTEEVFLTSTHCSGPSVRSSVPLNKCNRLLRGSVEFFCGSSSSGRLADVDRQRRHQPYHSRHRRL

Structure (SMILES) | EC50 [1] | bioavailability [2] | EC50 [3] | IC50 [4] | selectivity ratio [5] | CC50 [6] | MCC [6] | K (Trypanosoma brucei) | MIC [3] | other results
O=C(N[C@H](/C=C/S(=O)(=O)c1ccccc1)CCc1ccccc1)[C@H](Cc1ccccc1)NC(=O)N1CCOCC1 | 7.3 µM | 3% | 5.6 µM | 0.00036 µM | – | – | – | – | – | –
O=C[C@H](Cc1ccc(O)cc1)NC(=O)[C@H](Cc1ccccc1)NC(=O)OCc1ccccc1 (Cbz-Phe-Tyr-aldehyde) | – | – | 0.045 µM | – | 482 | 21.5 µM | > 100 µM | 1.38 ×10⁸ /M/min | 100 µM (≈ 44.7 µg/mL) | –
CS(=O)(=O)c1sc(C(=O)NC(=S)Nc2ccc(OC(F)(F)F)cc2)c2ccccc12 | – | – | – | – | – | – | – | – | – | IC50 [7]: 11 µM; IC50 (Papain): > 50 µM; IC50 [8]: 4.2 µM; IC50 (Cruzipain): 6.9 µM; IC50 (Trypsin): > 50 µM
Cc1ccc(C(=O)Nc2ccc(S(=O)(=O)O)c3cc(S(=O)(=O)O)cc(S(=O)(=O)O)c23)cc1NC(=O)c1cccc(NC(=O)Nc2cccc(C(=O)Nc3cc(C(=O)Nc4ccc(S(=O)(=O)O)c5cc(S(=O)(=O)O)cc(S(=O)(=O)O)c45)ccc3C)c2)c1 [SURAMIN] | – | – | 0.13 µM | – | 1900 | – | – | – | – | –
CC[C@H](C)[C@H](NS(=O)(=O)c1cccc2ccccc12)C(=O)N[C@H](C=O)Cc1c[nH]c2ccccc12 | – | – | 0.018 µM | – | 1150 | 21 µM | > 100 µM | 3.54 ×10⁷ /M/min | 10 µM (≈ 4.92 µg/mL) | –
CN1CCN(C(=O)N[C@@H](Cc2ccccc2)C(=O)N[C@H](/C=C/S(=O)(=O)c2ccccc2)CCc2ccccc2)CC1 [K-777] | 5.8 µM | 19.9% | 0.9 µM | 0.00035 µM | – | – | – | 9 ×10⁶ /M/min | – | –
